Read-outs that look alike come from different tables or passages of the source.
Molecular target: human α7 nAChR (Homo sapiens (Human), UniProt P36544)
Test: Automated patch-clamp electrophysiology functional assay (Assay A), IonFlux HT
Format: cell-based
Settings: HEK cell line stably expressing human RIC-3 and human α7, whole-cell population patch, 40 μM acetylcholine
Method: The α7 nAChR positive allosteric modulator (PAM) activity of the present compounds may be tested using assays known in the art. The α7 nAChR PAMs described herein have activities in an automated patch-clamp electrophysiology functional assay as described in the examples. The assay was performed using the IonFlux HT in a whole-cell, population patch configuration. See Golden et al. Assay Drug Dev. Technol. (2011) 9:608-619. The compounds were assessed for their ability to modulate the function of the human α7 nAChR stably expressed in a HEK cell line both in the presence, and in the absence of the natural α7 agonist acetylcholine. By performing a series of such measurements at different concentrations, the effective concentration of the α7 nAChR PAMs (EC50) was determined. See Spencer et al. Assay Drug Dev. Technol. (2012) 10:313-324.
Automated patch-clamp electrophysiology was performed using the IonFlux HT (Fluxion Biosciences Inc., San Francisco, Calif.) in the whole-cell, population patch configuration. Test compounds were assessed for their ability to modulate the function of the α7 nicotinic acetylcholine receptor both in the presence, and in the absence of the natural α7 agonist acetylcholine. A HEK cell line stably expressing both human RIC-3 and human α7 (PrecisION hnAChR α7/RIC-3, Eurofins Pharma, St. Charles, Mo.) was cultured in 175 cm^2 triple-layer tissue culture flasks to no more than 90% confluency in DMEM/F-12 growth media supplemented with 10% heat-inactivated fetal bovine serum, 1% non-essential amino acids, 0.625 μg/mL Puromycin, and 400 μg/mL Geneticin. Immediately prior to assay, cells were detached by first aspirating growth media, rinsing with Dulbecco's phosphate buffered saline, and then adding 10 mL of Accutase (Innovative Cell Technologies, San Diego, Calif.) to the flask and then incubating at 37° C. for 5 minutes. Detached cells were then recovered by the addition of 40 mL of CHO-serum-free media supplemented with 25 mM HEPES, and rocked gently in a 50 mL conical tube for 20 minutes prior to patch-clamp assay. After recovery, cells were pelleted by centrifugation at 1,000 RPM for 1 minute in a compact bench top centrifuge; recovery media was aspirated and cells were resuspended in external recording solution (150 mM NaCl, 5 mM KCl, 2 mM CaCl2, 1 mM MgCl2, 10 mM HEPES, 12 mM dextrose) to a density of 5.0×10^6 cells/mL. The cell suspension was added to the cell inlet wells on an IonFlux HT population patch plate which had previously been rinsed and primed with deionized H2O. Test compounds were serially diluted in DMSO and then resuspended to the final test concentration in external recording solution, with, or without 40 μM acetylcholine added to the external recording solution; test compounds were then transferred to the IonFlux HT population patch plate. Internal recording solution (110 mM TrisPO4, 28 mM TrisBase, 0.1 mM CaCl2, 2 mM MgCl2, 11 mM EGTA, 4 mM MgATP) was added to the internal recording solution inlet wells on the IonFlux HT patch plate previously loaded with cells and test compounds, and the plate loaded into the IonFlux HT instrument. A protocol was executed on the IonFlux HT to trap the cells, break into the cells, and establish the whole-cell recording configuration; cells were voltage-clamped at a holding potential of −60 mV for the duration of the experiment, all experiments were conducted at room temperature, and the IonFlux HT injection pressure was 8 psi for solution applications. Upon establishing the whole-cell configuration, external recording solution was perfused into the recording chambers for 120 seconds and then 40 μM acetylcholine was applied for 1 second and immediately washed off with external recording solution for 60 seconds. The 40 μM acetylcholine-evoked α7 current served as the current response to which subsequent test compound effects, in the presence, or in the absence of 40 μM acetylcholine would be quantified relative to. […]

Chain of human α7 nAChR (P36544 23-502): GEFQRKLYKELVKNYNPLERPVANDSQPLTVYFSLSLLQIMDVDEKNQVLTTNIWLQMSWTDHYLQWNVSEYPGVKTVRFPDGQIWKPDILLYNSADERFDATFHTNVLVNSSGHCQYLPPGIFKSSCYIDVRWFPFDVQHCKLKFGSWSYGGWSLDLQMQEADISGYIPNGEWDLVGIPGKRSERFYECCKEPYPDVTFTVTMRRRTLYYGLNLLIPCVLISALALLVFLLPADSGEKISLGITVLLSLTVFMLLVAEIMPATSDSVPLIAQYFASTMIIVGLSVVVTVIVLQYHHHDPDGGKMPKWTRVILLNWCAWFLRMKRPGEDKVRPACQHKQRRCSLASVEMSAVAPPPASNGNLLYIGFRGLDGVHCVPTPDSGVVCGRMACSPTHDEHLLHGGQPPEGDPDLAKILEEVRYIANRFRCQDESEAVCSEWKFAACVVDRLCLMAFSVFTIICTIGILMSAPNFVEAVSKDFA

CC(C)c1ccc(C2CC2c2ccc(S(N)(=O)=O)cc2)nc1 (racemic) [Example A6, 4-{trans-2-[5-(Propan-2-yl)pyridin-2-yl]cyclopropyl}benzenesulfonamide]
EC50 (read-out: α7 nAChR EC50): 700 nM
EC50 (read-out: α7 nAChR Potency): 500 to 5000 nM

CC(C)c1cnc(C2CC2c2ccc(S(N)(=O)=O)cc2)nc1 (single isomer, unassigned) [Example C1, 4-{trans-2-[5-(Propan-2-yl)pyrimidin-2-yl]cyclopropyl}benzenesulfonamide]
EC50 (read-out: α7 nAChR EC50): 280 nM
EC50 (read-out: α7 nAChR Potency): 100 to 500 nM

NS(=O)(=O)c1ccc([C@@H]2C[C@H]2c2ccc(C3CCCC3)cn2)cc1 (racemic) [Example A13, 4-[trans-2-(5-Cyclopentylpyridin-2-yl)cyclopropyl]benzenesulfonamide]
EC50 (read-out: α7 nAChR EC50): 1500 nM
EC50 (read-out: α7 nAChR Potency): 500 to 5000 nM

NS(=O)(=O)c1ccc(C2CC2c2ccc(C3CCCC3)cn2)cc1 (single isomer, unassigned) [Example 4, 4-[trans-2-(5-Cyclopentylpyridin-2-yl)cyclopropyl]benzenesulfonamide]
EC50 (read-out: α7 nAChR EC50): 1000 nM
EC50 (read-out: α7 nAChR Potency): 500 to 5000 nM

CC(C)c1cccc(C2CC2c2ccc(S(N)(=O)=O)cc2)n1 (single isomer, unassigned) [Example A1, 4-{trans-2-[6-(Propan-2-yl)pyridin-2-yl]cyclopropyl}benzenesulfonamide]
EC50 (read-out: α7 nAChR Potency): 500 to 5000 nM

CC(C)c1ccnc(C2CC2c2ccc(S(N)(=O)=O)cc2)c1 (racemic) [Example A11, 4-{trans-2-[4-(Propan-2-yl)pyridin-2-yl]cyclopropyl}benzenesulfonamide]
EC50 (read-out: α7 nAChR EC50): 460 nM
EC50 (read-out: α7 nAChR Potency): 100 to 500 nM

NS(=O)(=O)c1ccc([C@@H]2C[C@H]2c2ccc(-n3ccnc3)cc2)cc1 (racemic) [Example F1, 4-{trans-2-[4-(1H-Imidazol-1-yl)phenyl]cyclopropyl}benzenesulfonamide]
EC50 (read-out: α7 nAChR EC50): 3700 nM
EC50 (read-out: α7 nAChR Potency): 500 to 5000 nM

CC(C)c1ccnc(C2CC2c2ccc(S(N)(=O)=O)cc2)c1 (single isomer, unassigned) [Example A2, 4-{trans-2-[4-(Propan-2-yl)pyridin-2-yl]cyclopropyl}benzenesulfonamide]
EC50 (read-out: α7 nAChR EC50): 410 nM
EC50 (read-out: α7 nAChR Potency): 100 to 500 nM

CC(C)c1cccc(C2CC2c2ccc(S(N)(=O)=O)cc2)n1 (single isomer, unassigned) [Example 1, 4-{trans-2-[6-(Propan-2-yl)pyridin-2-yl]cyclopropyl}benzenesulfonamide]
EC50 (read-out: α7 nAChR EC50): 500 nM
EC50 (read-out: α7 nAChR Potency): 100 to 500 nM

NS(=O)(=O)c1ccc([C@@H]2C[C@H]2c2ccc(-n3cccn3)nc2)cc1 (racemic) [Example G3, 4-{trans-2-[6-(1H-Pyrazol-1-yl)pyridin-3-yl]cyclopropyl}benzenesulfonamide]
EC50 (read-out: α7 nAChR EC50): 870 nM
EC50 (read-out: α7 nAChR Potency): 500 to 5000 nM

NS(=O)(=O)c1ccc([C@@H]2C[C@H]2c2cccc(C3CCCC3)n2)cc1 (single isomer, unassigned) [Example A4, 4-[trans-2-(6-Cyclopentylpyridin-2-yl)cyclopropyl]benzenesulfonamide]
EC50 (read-out: α7 nAChR Potency): 500 to 5000 nM

CC(C)c1ccc(C2C(c3ccc(S(N)(=O)=O)cc3)C2[Si](C)(C)C)cn1 (centres unmarked) [Example B1, 4-{2-[6-(Propan-2-yl)pyridin-3-yl]-3-(trimethylsilyl)cyclopropyl}benzenesulfonamide]
EC50 (read-out: α7 nAChR EC50): 1600 nM
EC50 (read-out: α7 nAChR Potency): 500 to 5000 nM

CC(C)c1cccnc1C1CC1c1ccc(S(N)(=O)=O)cc1 (racemic) [Example A7, 4-{trans-2-[3-(Propan-2-yl)pyridin-2-yl]cyclopropyl}benzenesulfonamide]
EC50 (read-out: α7 nAChR EC50): 2400 nM
EC50 (read-out: α7 nAChR Potency): 500 to 5000 nM

NS(=O)(=O)c1ccc(C2CC2c2cccc(-n3cncn3)c2)cc1 (racemic) [Example F2, 4-{trans-2-[3-(1H-1,2,4-Triazol-1-yl)phenyl]cyclopropyl}benzenesulfonamide]
EC50 (read-out: α7 nAChR EC50): 5200 nM
EC50 (read-out: α7 nAChR Potency): 5000 to 50000 nM

NS(=O)(=O)c1ccc([C@@H]2C[C@H]2c2cccc(-n3cccn3)n2)cc1 (racemic) [Example A8, 4-{trans-2-[6-(1H-Pyrazol-1-yl)pyridin-2-yl]cyclopropyl}benzenesulfonamide]
EC50 (read-out: α7 nAChR EC50): 3300 nM
EC50 (read-out: α7 nAChR Potency): 500 to 5000 nM

NS(=O)(=O)c1ccc(C2CC2c2ccnc(-c3ccccc3)n2)cc1 (racemic) [Example D9, 4-[trans-2-(2-Phenylpyrimidin-4-yl)cyclopropyl]benzenesulfonamide]
EC50 (read-out: α7 nAChR Potency): 500 to 5000 nM

tert-Butyl 4-{4-[trans-2-(4-sulfamoylphenyl)cyclopropyl]pyrimidin-2-yl}piperazine-1-carboxylate [Example D4]
EC50 (read-out: α7 nAChR EC50): 720 nM
EC50 (read-out: α7 nAChR Potency): 500 to 5000 nM

NS(=O)(=O)c1ccc([C@H]2[C@H](c3nccc(-c4cccc(F)c4)n3)C2(F)F)cc1 [Example C6, 4-{(1R,3R)-2,2-Difluoro-3-[4-(3-fluorophenyl)pyrimidin-2-yl]cyclopropyl}benzenesulfonamide]
EC50 (read-out: α7 nAChR EC50): 1600 nM
EC50 (read-out: α7 nAChR Potency): 500 to 5000 nM

Cc1nc(-c2cccc([C@@H]3C[C@H]3c3ccc(S(N)(=O)=O)cc3)c2)no1 (relative stereo) [Example 7, 4-{trans-2-[3-(5-Methyl-1,2,4-oxadiazol-3-yl)phenyl]cyclopropyl}benzenesulfonamide]
EC50 (read-out: α7 nAChR EC50): 320 nM
EC50 (read-out: α7 nAChR Potency): 100 to 500 nM

CC(C)Oc1ccc(C2CC2c2ccc(S(N)(=O)=O)cc2)cn1 (racemic) [Example G4, 4-{trans-2-[6-(Propan-2-yloxy)pyridin-3-yl]cyclopropyl}benzenesulfonamide]
EC50 (read-out: α7 nAChR EC50): 1000 nM
EC50 (read-out: α7 nAChR Potency): 500 to 5000 nM

CC(C)c1cnc(C2CC2c2ccc(S(N)(=O)=O)cc2)nc1 (racemic) [Example C2, 4-{trans-2-[5-(Propan-2-yl)pyrimidin-2-yl]cyclopropyl}benzenesulfonamide]
EC50 (read-out: α7 nAChR Potency): 500 to 5000 nM

CC(C)c1ccnc(C2CC2c2ccc(S(N)(=O)=O)cc2)n1 (single isomer, unassigned) [Example 5, 4-{trans-2-[4-(Propan-2-yl)pyrimidin-2-yl]cyclopropyl}benzenesulfonamide]
EC50 (read-out: α7 nAChR EC50): 410 nM
EC50 (read-out: α7 nAChR Potency): 100 to 500 nM

NS(=O)(=O)c1ccc([C@@H]2C[C@H]2c2nccc(-c3cccc(F)c3)n2)cc1 (single isomer, unassigned) [Example C4, 4-{trans-2-[4-(3-fluorophenyl)pyrimidin-2-yl]cyclopropyl}benzenesulfonamide]
EC50 (read-out: α7 nAChR EC50): 1900 nM
EC50 (read-out: α7 nAChR Potency): 500 to 5000 nM

4-{trans-2-[2-(Pyrrolidin-1-yl)pyrimidin-4-yl]cyclopropyl}benzenesulfonamide [Example D7]
EC50 (read-out: α7 nAChR EC50): 900 nM
EC50 (read-out: α7 nAChR Potency): 500 to 5000 nM

— patent publication US11026958B2, “Substituted 6-membered aryl or heteroaryl allosteric modulators of nicotinic acetylcholine receptors” (Merck Sharp & Dohme Corp., priority 2016, dated 2021)
